US8067044B2, “Cosmetic compositions containing an extract of leaves of the Castanea sativa plant and cosmetic treatments” (Cognis France S.A.S., priority 2004, dated 2011)

Experiments:
Xanthine oxidase = Xanthine oxidase (Homo sapiens, UniProt P47989); assay: Inhibition test on xanthine oxidase (superoxide anion revealed by NBT); assay type: biochemical
Source text: (§1) 1.2 Methods and principle of this experiment: The anti-free radical (anti-FR) activity has been evaluated by chemical tests for the evaluation of the potential to scavenge free radicals R (DPPH test) and hydroxyl radicals HO. The anti-FR activity has been evaluated also by biochemical tests to address the potential for scavenging of a kind of reactive oxygen species (ROS), the so called super oxide anion (O2). The O2 originates mainly from xanthine oxydase and lipoxygenase activities. Xanthine oxydase (XOD) is an enzyme activated during oxidative stress, this enzyme catalyses the O2 release along the degradation of hypoxanthin (HX) which has been overproduced by a disruption of energetic cell metabolism.
Xanthine oxydase is an enzyme induced during oxidative stress: it catabolises the puric bases (adenine, guanine) in uric acid and superoxide anions O2— dismutates spontaneously (or by the action of SOD=superoxyde dismutase) in H2O2 and O2.
A substance with an anti-free-radical-activity absorbs or destroys the O2— anion and thereby it reduces the optical density.
The results are expressed in percent of inhibition of O2— radical against control. The aim of this test is to show an anti-free radical activity.
As to the meaning of U/ml: for an enzyme, the dose is expressed in Units/ml for unity. In the other cases, it is not enzymes.

[1] = tested on: strains of Gram-positive and Gram-negative bacteria; settings: same bacterial strains; cited from earlier work
[2] = tested on: Raphanus sativus seed germination; settings: cited from earlier work
B16 melanocytes = assay: Inhibition of melanin synthesis on B16 melanocytes; assay type: cell-based; settings: for Rate of cellular proteins / Rate of melanin: control = 100; for rate of released melanin (comment): treated B16 melanocytes
Procedure: Aim of the experiment: to evaluate the potential of compounds to lower the melanin synthesis; the compounds have been tested on cell culture of melanocytes called B16.
• Seeding of melanocytes in growth medium • Incubation for 3 days at 37° C., CO2=5% (atmosphere: 5% carbon dioxide in air) • Exchange of the growth medium by a medium with a range of concentration of ingredients to be tested • Incubation for 3 days at 37° C., CO2=5% (atmosphere: 5% carbon dioxide in air) • Recording of Cellular levels of protein by Bradford's method • Recording of melanin by a spectrophotometric method (OD at 475 nm)

[3] = Anti-HO test with deoxyribose (Fenton's reaction), reaction without EDTA
Source text: as §1
[…] The optical density at 532 nm corresponds to the level of oxidised deoxyribose. An anti-free radical substance reacts with these radicals HO— and reduces the formation of this pink compound.
(§2) The results are expressed in percent of inhibition of HO— radical against control. The aim of this test is to show an anti-free radical activity.

Lipoxygenase = assay: Inhibition test on lipoxygenase (superoxide anions, luminol); assay type: biochemical
Source text: as §1
Lipoxygenase was incubated with a specific substrate (unsaturated fatty acid) and the ingredient to be tested. Then the rate of released superoxide anions was evaluated by a luminescent probe (luminol). Caffeic acid was tested as reference ingredient.

[4] = Anti-DPPH test (free radical scavenging); settings: average of 2 assays
Source text: as §1, with “The O2 originates mainly from xanthine oxydase and lipoxygenase activities.” left out, “metabolism. […] Principle: DPPH (diphenylpicryl-hydrazyl) is a stable free radical which forms a purple solution. The purple solution of DPPH^o has a whitening effect due to components that act as radical-scavengers. […] The results are expressed in percent inhibition of DPPH radical against control. The aim of this test is to show an anti-free radical activity.” for “metabolism.”

human fibroblasts = assay: Inhibition of UVA effect on human fibroblasts (released MDA); assay type: cell-based
Procedure: Aim of the experiment: Determination of the potential of the tested ingredient to reduce negative effects of UV-A radiation on the survival rate of human fibroblasts.
• Seeding of human fibroblasts in a growth medium • Incubation for 3 days at 37° C., CO2=5% (atmosphere: 5% carbon dioxide in air) • Exchange of the growth medium by a medium with a range of concentration of ingredients to be tested • Incubation for 2 days at 37° C., CO2=5% • Exchange of the medium with ingredients by a balanced salt solution and UV-A irradiation (20 J/cm^2) • Recording of released MDA levels by spectro-fluorimetry. (MDA (malonaldialdehyde) is a product of oxidative degradation of lipids from cell membranes)

[5] = Anti-HO test with deoxyribose (Fenton's reaction), reaction with EDTA
Source text: as §1
Principle: The hydroxyl radical HO— (formed by H2O2 in presence of Fe++ with EDTA) oxidises deoxyribose (a component of DNA), then a pink compound is formed by condensation of thiobarbituric acid with oxidised form of deoxyribose. The optical density at 532 nm corresponds to the level of oxidised deoxyribose. An anti-free radical substance reacts with these radicals HO— and reduces the formation of this pink compound.
as §2

Sequence of Xanthine oxidase (P47989 whole entry, species assumed): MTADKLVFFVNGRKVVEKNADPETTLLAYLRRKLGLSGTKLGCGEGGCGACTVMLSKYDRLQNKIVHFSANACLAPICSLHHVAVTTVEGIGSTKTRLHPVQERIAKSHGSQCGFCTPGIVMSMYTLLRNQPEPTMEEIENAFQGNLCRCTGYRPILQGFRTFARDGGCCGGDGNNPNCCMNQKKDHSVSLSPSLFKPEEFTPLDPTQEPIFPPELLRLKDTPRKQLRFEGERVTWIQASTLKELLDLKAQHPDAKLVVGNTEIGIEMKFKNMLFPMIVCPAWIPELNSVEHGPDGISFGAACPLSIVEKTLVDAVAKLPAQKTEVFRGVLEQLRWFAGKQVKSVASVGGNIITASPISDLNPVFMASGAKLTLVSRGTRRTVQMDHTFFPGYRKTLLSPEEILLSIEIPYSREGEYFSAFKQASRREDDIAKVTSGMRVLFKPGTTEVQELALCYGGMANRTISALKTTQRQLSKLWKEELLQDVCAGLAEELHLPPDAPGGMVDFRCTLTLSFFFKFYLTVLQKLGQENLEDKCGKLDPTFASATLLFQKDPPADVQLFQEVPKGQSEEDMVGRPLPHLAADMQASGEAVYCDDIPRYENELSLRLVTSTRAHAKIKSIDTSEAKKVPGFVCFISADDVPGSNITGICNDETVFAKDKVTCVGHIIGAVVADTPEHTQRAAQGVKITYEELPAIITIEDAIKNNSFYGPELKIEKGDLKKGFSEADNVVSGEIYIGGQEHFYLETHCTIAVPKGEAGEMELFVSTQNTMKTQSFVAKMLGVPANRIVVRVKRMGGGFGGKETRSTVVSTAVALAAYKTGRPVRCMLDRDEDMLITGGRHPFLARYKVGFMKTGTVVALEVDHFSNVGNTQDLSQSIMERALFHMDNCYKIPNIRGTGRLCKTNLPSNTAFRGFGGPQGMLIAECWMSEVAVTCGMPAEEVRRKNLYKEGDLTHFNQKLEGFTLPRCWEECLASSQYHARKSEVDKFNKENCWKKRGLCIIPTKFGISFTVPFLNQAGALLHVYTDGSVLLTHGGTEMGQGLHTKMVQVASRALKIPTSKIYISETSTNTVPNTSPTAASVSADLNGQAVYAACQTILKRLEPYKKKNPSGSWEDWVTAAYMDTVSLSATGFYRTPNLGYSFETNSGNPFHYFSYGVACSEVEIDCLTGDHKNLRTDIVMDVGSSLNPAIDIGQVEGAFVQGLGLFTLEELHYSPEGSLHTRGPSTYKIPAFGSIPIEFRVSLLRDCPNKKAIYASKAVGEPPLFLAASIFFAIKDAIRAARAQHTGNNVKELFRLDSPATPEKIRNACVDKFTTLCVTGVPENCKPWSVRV

For “SOD: superoxyde dismutase, enzyme used as reference, dosed in U/ml”, the “% of inhibition of O2— radical against control” value (“% of inhibition of O2— radical” for short) (Xanthine oxidase; 0.5 U/ml) was 18%, the “% of inhibition of O2— radical” value (Xanthine oxidase; 5 U/ml) was 50% and the “% of inhibition of O2— radical” value (Xanthine oxidase; 50 U/ml) was 95%. It also gave an IC50 (Xanthine oxidase; enzyme reference, Units/ml) of 5 U/ml.
For `O=c1cc(-c2ccc(O)cc2)oc2cc(O)cc(O)c12` [apigenin], the “antibacterial activity among standards of the identified flavonoids” value [1] is listed as “highest activity” and the “percentage of seed germination and root and epicotyl growth” value [2] is listed as “decrease”.
In the case of `OC[C@H]1O[C@@H](Oc2ccc(O)cc2)[C@H](O)[C@@H](O)[C@@H]1O` [arbutin], the “Rate of cellular proteins” value (B16 melanocytes; dose 0.2 % w/v) is reported as 91 % against control, the Rate of melanin (B16 melanocytes; dose 0.2 % w/v) is reported as 64 % against control and the “rate of released melanin (comment)” value (B16 melanocytes) is reported as “strongly decreased”.
With `O=c1cc(CO)occ1O` [kojic acid] the “Rate of cellular proteins” value (B16 melanocytes; dose 0.03 % w/v) was 109 % against control, the Rate of melanin (B16 melanocytes; dose 0.03 % w/v) was 32 % against control and the “rate of released melanin (comment)” value (B16 melanocytes) was “strongly decreased”.
In the case of `c1cnc2c(c1)ccc1cccnc12` [o-phenanthroline], the “% of inhibition of HO— radical/control” value ([3]; 0.02 % (w/v)) is reported as 42% and the “% of inhibition of HO— radical/control” value ([3]; 0.06 % (w/v)) is reported as 71%.
With `O=C(O)/C=C/c1ccc(O)c(O)c1` [caffeic acid] the “% of inhibition (lipoxygenase, released superoxide anions)” value (Lipoxygenase; 0.00002 % (w/v)) was 18% and the “% of inhibition (lipoxygenase, released superoxide anions)” value (Lipoxygenase; 0.0002 % (w/v)) was 53%.
For `O=c1c(O)c(-c2ccc(O)c(O)c2)oc2cc(O)cc(O)c12` [quercetin], the “antibacterial activity among standards of the identified flavonoids” value [1] is listed as “highest activity” and the “percentage of seed germination and root and epicotyl growth” value [2] is listed as “decrease”.
In the case of `O=C1O[C@H]([C@@H](O)CO)C(O)=C1O` [Vitamin C, ascorbic acid], the “% of inhibition of DPPH radical/control” value ([4]; 0.0003 % (w/v)) is reported as 19%, the “% of inhibition of DPPH radical/control” value ([4]; 0.001 % (w/v)) is reported as 58% and the “% of inhibition of DPPH radical/control” value ([4]; 0.003 % (w/v)) is reported as 74%. For the same compound, the “% of inhibition of DPPH radical/control” value ([4]; 0.01 % (w/v)) was 68%.
With Vitamin E the “rate of released MDA from UV-A irradiated fibroblasts (comment)” value (human fibroblasts; UV-A irradiated human fibroblasts) was “strongly decreased” and the “Rate of released MDA” value (human fibroblasts; dose 0.0003 % w/v, UV-A 20 J/cm2 (irradiated control = 100)) was 7 % against control.
With `OC[C@@H](O)[C@@H](O)[C@H](O)[C@H](O)CO` [mannitol] the “% of inhibition of HO— radical/control” value ([5]; 0.06 % (w/v)) was 25% and the “% of inhibition of HO— radical/control” value ([5]; 0.6 % (w/v)) was 68%.
